Data taken from patent US20230330027A1, “PHARMACEUTICAL PREPARATION” (MERCK PATENT GMBH, priority 2020, published 2023).

Tests used:
[1] = Particle size distribution by laser diffraction (Malvern Mastersizer 2000); assay type: physicochemical; conditions: no unit in Table 4; d values in micrometers, volume distribution
Protocol: The particle size distribution of 8-(1,3-Dimethyl-1H-pyrazol-4-yl)-1-(Sa)-(3-fluoro-5-methoxy-pyridin-4-yl)-7-methoxy-3-methyl-1,3-dihydro-imidazo[4,5-c]quinolin-2-one is measured by laser diffraction on a Malvern Mastersizer 2000 (wet method using Hydro 2000S; sample amount of 100 mg dispersed in 5 ml silicone oil; stirrer speed 2000 rpm, no sonication, measuring time of 7.5 s; obscuration of 10-15%). The d values refer to the particle size distribution in micrometers […] whereby the dl 0 value refers to the particle diameter in micrometers at which 10 percent of the volume distribution of the particles are smaller than such value, the d50 value refers to the particle diameter in micrometers at which 50 percent of the volume distribution of the particles are smaller than such value and the d90 value refers to the particle diameter in micrometers at which 90 percent of the volume distribution of the particles are smaller than such value.

[2] = Thermodynamic stability of anhydrous polymorphic forms; assay type: physicochemical; conditions: among anhydrous Forms A1, A2, A3
ATM pCHK2 pathway = assay: Inhibition of the ATM pCHK2 pathway; assay type: cell-based; conditions: compared to the (Ra) atropisomer and the unseparated compound
PDE4A1A = PDE4A1A (Homo sapiens, UniProt P27815); assay: Inhibition of PDE4A1A; assay type: biochemical; conditions: compared to the (Ra) atropisomer and the unseparated compound
Sequence of PDE4A1A (P27815 1-647 isoform P27815-4): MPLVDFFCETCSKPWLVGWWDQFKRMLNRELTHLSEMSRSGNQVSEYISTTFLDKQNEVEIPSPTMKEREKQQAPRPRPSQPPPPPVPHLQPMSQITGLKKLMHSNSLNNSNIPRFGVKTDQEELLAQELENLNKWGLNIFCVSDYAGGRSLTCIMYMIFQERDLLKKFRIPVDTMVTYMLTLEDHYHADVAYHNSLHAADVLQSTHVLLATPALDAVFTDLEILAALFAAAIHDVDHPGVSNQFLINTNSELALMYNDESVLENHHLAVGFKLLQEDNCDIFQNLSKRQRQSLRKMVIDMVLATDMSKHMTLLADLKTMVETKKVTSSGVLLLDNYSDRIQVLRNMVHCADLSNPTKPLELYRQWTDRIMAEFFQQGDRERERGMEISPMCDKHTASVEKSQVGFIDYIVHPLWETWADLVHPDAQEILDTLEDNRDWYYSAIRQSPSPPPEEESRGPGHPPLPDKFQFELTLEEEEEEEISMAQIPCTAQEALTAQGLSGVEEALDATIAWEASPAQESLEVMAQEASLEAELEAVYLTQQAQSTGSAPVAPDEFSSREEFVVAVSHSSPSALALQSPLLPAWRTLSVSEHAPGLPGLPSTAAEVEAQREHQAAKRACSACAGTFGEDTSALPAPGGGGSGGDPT

PDE4D2 = PDE4D2 (Homo sapiens, UniProt Q08499); assay: Inhibition of PDE4D2; assay type: biochemical; conditions: compared to the (Ra) atropisomer and the unseparated compound
Sequence of PDE4D2 (Q08499 303-809 limits assumed): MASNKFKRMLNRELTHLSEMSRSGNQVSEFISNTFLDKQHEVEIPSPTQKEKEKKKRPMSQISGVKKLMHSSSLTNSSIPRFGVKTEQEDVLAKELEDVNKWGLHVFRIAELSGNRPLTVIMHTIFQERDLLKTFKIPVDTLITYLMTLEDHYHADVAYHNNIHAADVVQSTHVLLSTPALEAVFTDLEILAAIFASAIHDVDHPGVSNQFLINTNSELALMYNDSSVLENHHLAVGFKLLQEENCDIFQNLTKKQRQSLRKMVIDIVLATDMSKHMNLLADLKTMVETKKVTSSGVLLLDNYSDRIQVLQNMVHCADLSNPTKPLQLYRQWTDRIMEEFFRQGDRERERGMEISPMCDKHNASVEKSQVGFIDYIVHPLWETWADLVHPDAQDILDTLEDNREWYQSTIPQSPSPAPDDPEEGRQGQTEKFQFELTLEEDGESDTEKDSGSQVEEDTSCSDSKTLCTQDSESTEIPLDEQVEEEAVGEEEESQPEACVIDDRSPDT

Microsomal clearance = assay type: in vitro ADME; conditions: compared to the (Ra) atropisomer and the unseparated compound
[3] = Selectivity compared to the other atropisomer and the mixture; conditions: compared to the (Ra) atropisomer and the unseparated compound
[4] = biological target: phosphodiesterase (PDE) 2A1 (Homo sapiens, UniProt O00408); assay: Inhibition of PDE2A1; assay type: biochemical; conditions: compared to the (Ra) atropisomer and the unseparated compound
Sequence of phosphodiesterase (PDE) 2A1 (O00408 1-920 isoform O00408-2): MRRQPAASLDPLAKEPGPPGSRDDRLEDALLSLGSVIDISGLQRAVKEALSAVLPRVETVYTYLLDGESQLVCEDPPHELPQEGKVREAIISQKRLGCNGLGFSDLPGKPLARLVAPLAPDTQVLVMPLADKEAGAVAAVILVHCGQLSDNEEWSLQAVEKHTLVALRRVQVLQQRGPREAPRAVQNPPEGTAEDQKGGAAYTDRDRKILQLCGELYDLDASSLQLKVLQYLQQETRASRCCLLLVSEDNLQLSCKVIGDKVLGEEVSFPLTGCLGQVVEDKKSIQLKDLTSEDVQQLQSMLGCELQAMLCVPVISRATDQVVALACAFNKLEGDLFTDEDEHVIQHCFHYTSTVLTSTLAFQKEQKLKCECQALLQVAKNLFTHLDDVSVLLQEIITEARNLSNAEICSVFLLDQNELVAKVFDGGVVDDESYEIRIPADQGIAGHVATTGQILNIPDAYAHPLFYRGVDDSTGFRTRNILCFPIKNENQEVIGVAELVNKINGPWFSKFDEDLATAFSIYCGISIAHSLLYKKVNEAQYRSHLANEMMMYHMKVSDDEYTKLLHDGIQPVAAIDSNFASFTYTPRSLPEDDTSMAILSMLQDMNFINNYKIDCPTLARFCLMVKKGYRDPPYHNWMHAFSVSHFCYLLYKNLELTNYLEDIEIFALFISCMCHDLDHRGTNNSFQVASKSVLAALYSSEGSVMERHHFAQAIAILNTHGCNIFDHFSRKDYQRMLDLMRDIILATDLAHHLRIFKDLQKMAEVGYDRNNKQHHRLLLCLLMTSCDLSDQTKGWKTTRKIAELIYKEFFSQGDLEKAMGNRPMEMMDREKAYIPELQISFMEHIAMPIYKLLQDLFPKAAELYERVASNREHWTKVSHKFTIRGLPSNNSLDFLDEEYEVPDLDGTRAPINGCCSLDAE

| Compound | Dv10 [1] [µm] | Dv50 [1] [µm] | Dv90 [1] [µm] | Thermodynamic stability of the solid form [2] | Inhibition of the ATM pCHK2 pathway (ATM pCHK2 pathway) | Inhibition of PDE4A1A (PDE4A1A) | Inhibition of PDE4D2 (PDE4D2) | Microsomal clearance values (Microsomal clearance) | Selectivity [3] | Inhibition of phosphodiesterase (PDE) 2A1 [4] |
| --- | --- | --- | --- | --- | --- | --- | --- | --- | --- | --- |
| COc1cc2ncc3c(c2cc1-c1cn(C)nc1C)n(-c1c(F)cncc1OC)c(=O)n3C (atropisomer, axis not shown; (Sa)) [Compound 1 Anhydrous Form A2 OPT, 8-(1,3-Dimethyl-1H-pyrazol-4-yl)-1-(Sa)-(3-fluoro-5-methoxy-pyridin-4-yl)-7-methoxy-3-methyl-1,3-dihydro-imidazo[4,5-c]quinolin-2-one] | 19 | 64 | 202 | – | – | – | – | – | – | – |
| COc1cc2ncc3c(c2cc1-c1cn(C)nc1C)n(-c1c(F)cncc1OC)c(=O)n3C (atropisomer, axis not shown; (Sa)) [Compound 1 Anhydrous Form A2, 8-(1,3-Dimethyl-1H-pyrazol-4-yl)-1-(Sa)-(3-fluoro-5-methoxy-pyridin-4-yl)-7-methoxy-3-methyl-1,3-dihydro-imidazo[4,5-c]quinolin-2-one] | 9 | 63 | 599 | thermodynamically most stable anhydrous form | – | – | – | – | – | – |
| COc1cc2ncc3c(c2cc1-c1cn(C)nc1C)n(-c1c(F)cncc1OC)c(=O)n3C (atropisomer, axis not shown; (Sa)) [Compound 1, 8-(1,3-Dimethyl-1H-pyrazol-4-yl)-1-(Sa)-(3-fluoro-5-methoxy-pyridin-4-yl)-7-methoxy-3-methyl-1,3-dihydro-imidazo[4,5-c]quinolin-2-one] | – | – | – | – | at lower concentrations | lowest inhibition | lowest inhibition | best microsomal clearance values | better selectivity | lowest inhibition |
